The values below come from a melting point compilation (Tetko et al.).

For orientation: melting point means the temperature of the solid-liquid transition.

As to `O=C(O)C=Cc1ccc(C=CC(=O)O)cc1`, the melting point was found to be 300 °C.

Take `CC(=O)Nc1ccc2c(OC(C)=O)c(-c3ccccc3)[nH]c2c1`: the melting point stood at 219 °C.

For `CN1CCN(c2ccc(C=O)cc2)CC1`, the melting point fell in the range of 57 to 60 °C.

For `CCOC(=O)N=C(c1ccc[nH]1)N1CCOCC1`, the melting point is 147 to 149 °C.

Regarding `CC(C)CCCC(C)C1CCC2C3CC(Cl)C4(O)CC(=O)CCC4(C)C3CCC12C` (centres undefined), the melting point came to 214 °C.

On to `O=C(c1ccc(F)cc1)C1CCN(CCn2c(=O)[nH]c3ccccc3c2=O)CC1`, for which the melting point amounted to 231 °C.

Consider `O=[N+]([O-])c1ccc(Cl)c(N=C=S)c1`, for which the melting point was 67 to 70 °C.

In turn, `CCCC(C)(C)C(=O)Nc1ccc(Cl)cc1` showed a melting point of 87.5 °C.

`C=Nc1cnn(-c2ncnc3c2cnn3C)c1C=COCC` gave a melting point of 155 °C.

In turn, `O=C(O)c1ccc2c(c1)OCCCO2` had a melting point of 143 to 146 °C.

In turn, `O=C(c1ccccc1)c1cc(C(=O)c2ccccc2)c([N+](=O)[O-])cc1[N+](=O)[O-]` came in with a melting point of 174 °C.

In the case of `O=[N+]([O-])c1ccc(O)c2ncccc12`, the melting point came to 180 °C.

For the compound `Cc1ccc(C(C)CC(=O)C=Cc2ccccc2)cc1` (centres undefined), the melting point was 88 °C.

In turn, `C#Cc1ccc(OC)cc1` showed a melting point of 28 to 30 °C.

`CC(=O)SC1CC2=CC(=O)CCC2(C)C2CCC3(C)C(CCC34CCC(=O)O4)C12` (centres undefined) gave a melting point of 208 °C.

In turn, `COc1ccc2[nH]cc(CCNC(C)=O)c2c1` showed a melting point of 117 °C.

The compound `O=C(O)C1CC(c2ccccc2)CCC1C(=O)c1ccccc1` (centres undefined) returned a melting point of 184 to 187 °C.

`OC(CCl)c1ccc(Cl)cc1Cl` (centres undefined) returned a melting point of 48 to 52 °C.

In turn, `C/C=C/CCCCCCCC` displayed a melting point of -48.3 °C.

The compound `Nc1ccc(CN2CCS(=O)(=O)CC2)cc1` gave a melting point of 156 °C.

On to `Cc1cccc(Cn2nc(C(C)(C)C)cc2C(=O)NN)c1`, for which the melting point lay within 102 to 104 °C.

`CCOC(=O)Cc1cc(CC(=O)OCC)c(NC(=O)OCC)cc1NC(=O)OCC` registered a melting point of 140 °C.

In turn, `CCSC(SCC)C(OC(C)=O)C(OC(C)=O)C(OC(C)=O)C(COC(C)=O)OC(C)=O` (centres undefined) had a melting point of 111 to 112 °C.

As to `NC(=O)Nc1ccccc1`, the melting point came out at 147 °C.

Turning to `Cc1c(S(=O)(=O)c2ccc(Cl)cc2)csc1C(=O)O`, the melting point is 252 to 256 °C.

Take `O=C=Nc1ccc(OCc2ccccc2)cc1`: the melting point lay within 61 to 63 °C.

Consider `CC(CC(C)(C)O)OC(O)C(Cl)(Cl)Cl` (centres undefined), for which the melting point was 103 °C.

In turn, `CC1(C)SC2C(N)C(=O)N2C1C(=O)O` (centres undefined) gave a melting point of 198 to 200 °C.

Turning to `Cc1cncc(N2CCNCC2)n1`, the melting point was 49 to 51 °C.

For the compound `CCOC(=O)NC1C2CCC(C)(C1O)C2(C)C` (centres undefined), the melting point is 76 °C.

`COC(=O)C1CC(=O)CN1C(=O)OC(C)(C)C` (centres undefined) registered a melting point of 38 °C.

In turn, `N[C@@H](CCCCNC(=O)OCc1ccccc1)C(=O)O` had a melting point of 259 °C.

`Cc1ccc(-c2cc(NN=c3c(C)nc4ccccc4[nH]c3=O)[nH]n2)cc1`: the melting point came to 168 °C.

With `CC(C)(C)C1=NN(c2ccccc2)C(=O)C1`, the melting point was determined as 110 °C.

As to `CC1=C/C(=N/NC(N)=O)C(C(C)C)CC1` (centres undefined), the melting point was in the range of 219 to 220 °C.

Compound `O=S(=O)(Cl)c1ccc(S(=O)(=O)N2CCCC2)cc1` yielded a melting point of 133 to 134 °C.

The compound `CC1(C)OC2OC(CO)C(O)C2O1` (centres undefined) gave a melting point of 68 to 70 °C.

In turn, `CC(=O)C(=Nc1ccccc1)c1cc(C(=Nc2ccccc2)C(C)=O)c([N+](=O)[O-])cc1[N+](=O)[O-]` registered a melting point of 174 to 175 °C.

Take `C=CCOc1ccc(NC(C)=O)cc1`: the melting point is 90 to 92 °C.

`CCOP(=S)(OCC)Oc1cc(C)nc(N(CC)CC)n1` came in with a melting point of 15 °C.

`O=C(O)CN(CCO)CC(=O)O` showed a melting point of 178 °C.

Take `O=C(O)c1ccc(F)cc1O`: the melting point was found to be 191 °C.

`Cc1onc(-c2c(F)cccc2Cl)c1C(N)=O`: the melting point fell in the range of 127 to 129 °C.

For `Nc1ccccc1OC1CCOCC1`, the melting point fell in the range of 58 to 61 °C.

Compound `OCc1cc(F)cc2c1OCOC2` came in with a melting point of 73.2 to 73.9 °C.

Consider `CC(C1CC1)C(O)(Cn1cncn1)c1ccc(Cl)cc1` (centres undefined), for which the melting point is 108 °C.

`COc1ccccc1-n1ncc2c(=O)[nH]cnc21` gave a melting point of 270 to 271 °C.

`CC(CCl)OC(C)CCl` (centres undefined) showed a melting point of -97 °C.

`Cc1cc(CO)c(O)c(CO)c1` showed a melting point of 129 °C.

In the case of `Cc1ccccc1F`, the melting point was -62 °C.

In turn, `O=C(O)C1Cc2ccccc21` (centres undefined) displayed a melting point of 74 °C.

With `O=Cc1cccc(Br)n1`, the melting point was 81 °C.

On to `CCCCOc1ccc(OCCCC)cc1`, for which the melting point amounted to 45.5 °C.

In turn, `O=C(O)CCc1ccc2c(c1)CCC(=O)N2` yielded a melting point of 234 °C.

Consider `CCOC(=O)C1=C(CBr)NC(C)=C(C(=O)OC)C1c1cccc([N+](=O)[O-])c1` (centres undefined), for which the melting point was determined as 106 °C.

In turn, `O=C(O)C=CC(=O)Nc1cccc(C(F)(F)F)c1` yielded a melting point of 161 to 164 °C.

`CC(C)CC(=O)C=Cc1ccccc1`: the melting point was 43 °C.

`CCOC(=O)C(C#N)=Cc1ccc(-c2ccccc2)o1` yielded a melting point of 116 to 117 °C.

As to `CCOC(=O)C(C(C)=O)C(=O)/C=C/c1ccc(OC)c(OCc2ccccc2)c1` (centres undefined), the melting point fell in the range of 207 to 208 °C.

Take `Nn1c(S)nnc1C(F)(F)F`: the melting point stood at 141 °C.

The compound `CN1CCC23c4c5ccc(O)c4OC2C(O)CCC3C1C5` (centres undefined) came in with a melting point of 157 °C.

In the case of `C=CC(=O)N1CCN(C(=O)C=C)CC1`, the melting point is 93 °C.

As for `CCCC/C=C/CCCCC`, the melting point was -61.1 °C.

Regarding `COc1c(Br)ccc2c1C(=O)C2`, the melting point amounted to 118 °C.

The compound `CC(C)(C)OC(=O)NC(Cc1cccc2ccccc12)C(=O)O` (centres undefined) yielded a melting point of 145 to 148 °C.

`Fc1ccc(C(Br)(c2ccc(F)cc2)c2ccc(F)cc2)cc1` displayed a melting point of 109 °C.

`NS(=O)(=O)c1cc2c(cc1Cl)NCNS2(=O)=O` gave a melting point of 267 °C.

As for `C=C(C)C(=O)Nc1ccc(Cl)c(Cl)c1`, the melting point is 128 °C.

In turn, `CC1(C)[C@H](C(=O)OC(C#N)c2cccc(Oc3ccccc3)c2)[C@@H]1C=C(Cl)Cl` (some centres undefined) gave a melting point of 79 °C.

Consider `Nc1ccc(Br)nn1`, for which the melting point was determined as 194 °C.

The compound `CC(=O)c1cc2cc(Cl)ccc2o1` came in with a melting point of 97 to 98 °C.

Take `CCCNC(=O)NNC(=O)OCC`: the melting point was found to be 95 °C.

As for `O=C(c1ccco1)N1CCNCC1`, the melting point stood at 68 °C.

On to `CCCCCCCC(=O)Oc1ccc(/N=N/c2ccc(CCCC)cc2)cc1`, for which the melting point lay in the range of 63 to 64.2 °C.

`C=C1C2CCC3(O)C4(C)CCCC(C)(C(=O)OC5OC(CO)C(O)C(O)C5O)C4CCC3(C2)C1O` (centres undefined) showed a melting point of 218 to 220 °C.

In the case of `CCCCC=CCCCCCCCCOC(C)=O`, the melting point came to 1.3 °C.

With `O=Cc1ccc(-n2cccn2)cc1`, the melting point was 82 to 83 °C.

`CC(=O)C12OC(C)(c3ccccc3)OC1CC1C3CCC4=CC(=O)CCC4(C)C3CCC12C` (centres undefined): the melting point turned out to be 150 °C.

Compound `Nc1nncs1` came in with a melting point of 191 °C.

Consider `COc1ccc(/C=C(\C(N)=O)c2nc3ccccc3s2)cc1`, for which the melting point was found to be 168 °C.

Take `CCOC(=O)c1cc2ccccc2oc1=O`: the melting point was found to be 94 °C.

`OCC1OC(c2ccccc2)OC1CO` (single isomer, unassigned; (+)): the melting point was 69 to 74 °C.

In the case of `CS(=O)CCC(N)C(=O)O` (racemic), the melting point was in the range of 232 to 234 °C.

Compound `CC(=O)Nc1ccc(S(=O)(=O)NCCO)cc1` yielded a melting point of 126 to 127 °C.

`CCN(CC)C(=O)C1C=C2c3cccc4[nH]cc(c34)CC2N(C)C1` (centres undefined) showed a melting point of 82.5 °C.

Compound `CC(=O)c1cc2ccccc2oc1=O` gave a melting point of 122 °C.

`COc1ccc(-c2csc(/C(C#N)=C\c3cccs3)n2)cc1` gave a melting point of 140 °C.

As for `CCCCCCCCCCCCCBr`, the melting point was determined as 6.2 °C.

`CC1CCCCS1` (centres undefined) gave a melting point of -58 °C.

With `Cc1cc(C)c(NC(N)=S)c(C)c1`, the melting point was 231 °C.

Consider `NS(=O)(=O)c1c(F)cc(F)cc1Br`, for which the melting point stood at 126 °C.

For `CC(Cl)C(N)=O` (centres undefined), the melting point lay within 76 to 81 °C.

The compound `CCC1(C(=O)NC(C)c2ccc(Cl)cc2)C(C)C1(Cl)Cl` (centres undefined) registered a melting point of 160 °C.

Take `COc1cc(OC)c2c(=O)c(=O)c2c1`: the melting point amounted to 149 °C.

Turning to `Cc1nc2ccc(N)cc2s1`, the melting point lay within 122 to 124 °C.

In the case of `Cc1nc(-c2ccc(C(F)(F)F)cc2)sc1S(=O)(=O)Cl`, the melting point is 93 to 94 °C.

Turning to `CC(C)(CO)C(O)C(=O)NCCCO` (racemic), the melting point is 68 °C.

The compound `Cc1nc(-c2cc(C(=O)O)no2)cs1` displayed a melting point of 166 to 167 °C.

The compound `CCc1oc2ccccc2c1C(=O)c1ccc(O)cc1` came in with a melting point of 124 °C.

For `CC(C)[C@H](N)C(O)(c1ccccc1)c1ccccc1`, the melting point stood at 92 °C.

Compound `O=C1C=CC2(CCC23C=CC(=O)O3)O1` (centres undefined) had a melting point of 158 °C.

For the compound `O=C1C(c2ccccc2)=[N+]([O-])c2ccccc21`, the melting point came out at 186 °C.

`Cc1cc(Br)ccc1C#N` came in with a melting point of 64 °C.

`CC(C)(C)c1cc(C=O)cc(C(C)(C)C)c1` returned a melting point of 82 to 87 °C.

`CC(=O)Oc1cn(C(C)=O)c2ccc(Br)c(Cl)c12` yielded a melting point of 166 °C.

`O=C1C(C(Br)C2(Br)C(=O)N(c3ccccc3)N=C2c2ccc([N+](=O)[O-])cc2)C(c2ccc([N+](=O)[O-])cc2)=NN1c1ccccc1` (centres undefined) returned a melting point of 308 to 310 °C.

For the compound `c1ccc(-c2cc3cc4cc(-c5ccccc5)[nH]c4cc3[nH]2)cc1`, the melting point is above 270 °C.

In turn, `c1ccc(C2Nn3c(nnc3-c3cccnc3)S2)cc1` (centres undefined) came in with a melting point of 220 °C.

In the case of `Cc1ccc2nc3sc(=O)sc3nc2c1`, the melting point is 170 °C.
